Measurements as given in patent publication US11718604B2, “4-amino-6-(1,3-benzodioxole)picolinates and their use as herbicides” (Dow AgroSciences LLC, priority 2018, dated 2023).

Assays:
Format in all cases: in vivo
[1] = system: DIGSA: large crabgrass (Digitaria sanguinalis); assay: Post-emergent herbicidal test, large crabgrass; conditions: post-emergence, 336 h, 14 days after application, read-out: Visual Growth Reduction (%) 14 Days After Application DIGSA; for pest or weed control at 17.5 g/ha: 17.5 g ai/ha; for pest or weed control at 35 g/ha: 35 g ai/ha; for pest or weed control at 70 g/ha: 70 g ai/ha; for pest or weed control at 140 g/ha: 140 g ai/ha
Outline: (§1)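 Seedlings grown in greenhouse (23-29 °C day, 22-28 °C night, ~15 h photoperiod) to first or second true leaf stage were sprayed overhead at 187 L/ha with compound in acetone/DMSO/water/isopropanol/crop oil/Triton X-155, at the high rate and ½× to 1/16× dilutions. Injury scored visually after 14 d, 0 (none) to 100% (complete kill), relative to untreated plants.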

[2] = system: ABUTH: velvetleaf (Abutilon theophrasti); assay: Post-emergent herbicidal test, velvetleaf; conditions: post-emergence, 336 h, 14 days after application, read-out: Visual Growth Reduction (%) 14 Days After Application ABUTH; for pest or weed control at 17.5 g/ha: 17.5 g ai/ha; for pest or weed control at 35 g/ha: 35 g ai/ha; for pest or weed control at 70 g/ha: 70 g ai/ha; for pest or weed control at 140 g/ha: 140 g ai/ha
Outline: as §1

[3] = system: SETFA: giant foxtail (Setaria faberi); assay: Post-emergent herbicidal test, giant foxtail; conditions: post-emergence, 336 h, 14 days after application, read-out: Visual Growth Reduction (%) 14 Days After Application SETFA; for pest or weed control at 17.5 g/ha: 17.5 g ai/ha; for pest or weed control at 35 g/ha: 35 g ai/ha; for pest or weed control at 70 g/ha: 70 g ai/ha; for pest or weed control at 140 g/ha: 140 g ai/ha
Outline: as §1

[4] = system: CIRAR: Canada thistle (Cirsium arvense); assay: Post-emergent herbicidal test, Canada thistle; conditions: post-emergence, 336 h, 14 days after application, read-out: Visual Growth Reduction (%) 14 Days After Application CIRAR; for pest or weed control at 17.5 g/ha: 17.5 g ai/ha; for pest or weed control at 35 g/ha: 35 g ai/ha; for pest or weed control at 70 g/ha: 70 g ai/ha; for pest or weed control at 140 g/ha: 140 g ai/ha
Outline: as §1

[5] = system: VIOTR: wild violet (Viola tricolor); assay: Post-emergent herbicidal test, wild violet; conditions: post-emergence, 336 h, 14 days after application, read-out: Visual Growth Reduction (%) 14 Days After Application VIOTR; for pest or weed control at 17.5 g/ha: 17.5 g ai/ha; for pest or weed control at 35 g/ha: 35 g ai/ha; for pest or weed control at 70 g/ha: 70 g ai/ha; for pest or weed control at 140 g/ha: 140 g ai/ha
Outline: as §1

[6] = system: EPHHL: wild poinsettia (Euphorbia heterophylla); assay: Post-emergent herbicidal test, wild poinsettia; conditions: post-emergence, 336 h, 14 days after application, read-out: Visual Growth Reduction (%) 14 Days After Application EPHHL; for pest or weed control at 17.5 g/ha: 17.5 g ai/ha; for pest or weed control at 35 g/ha: 35 g ai/ha; for pest or weed control at 70 g/ha: 70 g ai/ha; for pest or weed control at 140 g/ha: 140 g ai/ha
Outline: as §1

[7] = system: CYPES: yellow nutsedge (Cyperus esculentus); assay: Post-emergent herbicidal test, yellow nutsedge; conditions: post-emergence, 336 h, 14 days after application, read-out: Visual Growth Reduction (%) 14 Days After Application CYPES; for pest or weed control at 17.5 g/ha: 17.5 g ai/ha; for pest or weed control at 35 g/ha: 35 g ai/ha; for pest or weed control at 70 g/ha: 70 g ai/ha; for pest or weed control at 140 g/ha: 140 g ai/ha
Outline: as §1

[8] = system: BRSNN: oilseed rape, canola (Brassica napus); assay: Post-emergent herbicidal test, oilseed rape; conditions: post-emergence, 336 h, 14 days after application, read-out: Visual Growth Reduction (%) 14 Days After Application BRSNN; for pest or weed control at 17.5 g/ha: 17.5 g ai/ha; for pest or weed control at 35 g/ha: 35 g ai/ha; for pest or weed control at 70 g/ha: 70 g ai/ha; for pest or weed control at 140 g/ha: 140 g ai/ha
Outline: as §1

[9] = system: SORVU: shattercane (Sorghum bicolor); assay: Post-emergent herbicidal test, shattercane; conditions: post-emergence, 336 h, 14 days after application, read-out: Visual Growth Reduction (%) 14 Days After Application SORVU; for pest or weed control at 17.5 g/ha: 17.5 g ai/ha; for pest or weed control at 35 g/ha: 35 g ai/ha; for pest or weed control at 70 g/ha: 70 g ai/ha; for pest or weed control at 140 g/ha: 140 g ai/ha
Outline: as §1

[10] = system: IPOHE: ivyleaf morningglory (Ipomoea hederacea); assay: Post-emergent herbicidal test, ivyleaf morningglory; conditions: post-emergence, 336 h, 14 days after application, read-out: Visual Growth Reduction (%) 14 Days After Application IPOHE; for pest or weed control at 17.5 g/ha: 17.5 g ai/ha; for pest or weed control at 35 g/ha: 35 g ai/ha; for pest or weed control at 70 g/ha: 70 g ai/ha; for pest or weed control at 140 g/ha: 140 g ai/ha
Outline: as §1

[11] = system: ECHCG: barnyardgrass (Echinochloa crus-galli); assay: Post-emergent herbicidal test, barnyardgrass; conditions: post-emergence, 336 h, 14 days after application, read-out: Visual Growth Reduction (%) 14 Days After Application ECHCG; for pest or weed control at 17.5 g/ha: 17.5 g ai/ha; for pest or weed control at 35 g/ha: 35 g ai/ha; for pest or weed control at 70 g/ha: 70 g ai/ha; for pest or weed control at 140 g/ha: 140 g ai/ha
Outline: as §1

COC(=O)c1nc(-c2ccc(Br)c3c2OC(F)(F)O3)c(F)c(N)c1Cl [Compound 9]
70%: pest or weed control at 17.5 g/ha [4]
60%: pest or weed control at 17.5 g/ha [8] | pest or weed control at 35 g/ha [8]
20%: pest or weed control at 70 g/ha [5] | pest or weed control at 140 g/ha [5]
10%: pest or weed control at 70 g/ha [9] | pest or weed control at 140 g/ha [9]
80%: pest or weed control at 17.5 g/ha [2] | pest or weed control at 35 g/ha [4]
0%: pest or weed control at 17.5 g/ha [1] | pest or weed control at 35 g/ha [1] | pest or weed control at 70 g/ha [1] | pest or weed control at 140 g/ha [1] | pest or weed control at 17.5 g/ha [3] | pest or weed control at 35 g/ha [3] | pest or weed control at 70 g/ha [3] | pest or weed control at 140 g/ha [3] | pest or weed control at 17.5 g/ha [5] | pest or weed control at 35 g/ha [5] | pest or weed control at 17.5 g/ha [6] | pest or weed control at 35 g/ha [6] | pest or weed control at 70 g/ha [6] | pest or weed control at 140 g/ha [6] | pest or weed control at 17.5 g/ha [7] | pest or weed control at 35 g/ha [7] | pest or weed control at 70 g/ha [7] | pest or weed control at 140 g/ha [7] | pest or weed control at 17.5 g/ha [9] | pest or weed control at 35 g/ha [9] | pest or weed control at 17.5 g/ha [10] | pest or weed control at 35 g/ha [10] | pest or weed control at 70 g/ha [10] | pest or weed control at 140 g/ha [10] | pest or weed control at 17.5 g/ha [11] | pest or weed control at 35 g/ha [11] | pest or weed control at 70 g/ha [11] | pest or weed control at 140 g/ha [11]
75%: pest or weed control at 70 g/ha [8] | pest or weed control at 140 g/ha [8]
85%: pest or weed control at 35 g/ha [2] | pest or weed control at 70 g/ha [2] | pest or weed control at 140 g/ha [2] | pest or weed control at 70 g/ha [4] | pest or weed control at 140 g/ha [4]

COC(=O)c1nc(-c2ccc(I)c3c2OC(F)(F)O3)c(F)c(N)c1Cl [Compound 10]
60%: pest or weed control at 17.5 g/ha [4] | pest or weed control at 35 g/ha [8]
65%: pest or weed control at 17.5 g/ha [2] | pest or weed control at 70 g/ha [8]
0%: pest or weed control at 17.5 g/ha [1] | pest or weed control at 35 g/ha [1] | pest or weed control at 70 g/ha [1] | pest or weed control at 140 g/ha [1] | pest or weed control at 17.5 g/ha [3] | pest or weed control at 35 g/ha [3] | pest or weed control at 70 g/ha [3] | pest or weed control at 140 g/ha [3] | pest or weed control at 17.5 g/ha [5] | pest or weed control at 35 g/ha [5] | pest or weed control at 70 g/ha [5] | pest or weed control at 140 g/ha [5] | pest or weed control at 17.5 g/ha [6] | pest or weed control at 35 g/ha [6] | pest or weed control at 70 g/ha [6] | pest or weed control at 140 g/ha [6] | pest or weed control at 17.5 g/ha [7] | pest or weed control at 35 g/ha [7] | pest or weed control at 70 g/ha [7] | pest or weed control at 140 g/ha [7] | pest or weed control at 17.5 g/ha [9] | pest or weed control at 35 g/ha [9] | pest or weed control at 70 g/ha [9] | pest or weed control at 140 g/ha [9] | pest or weed control at 17.5 g/ha [10] | pest or weed control at 35 g/ha [10] | pest or weed control at 70 g/ha [10] | pest or weed control at 140 g/ha [10] | pest or weed control at 17.5 g/ha [11] | pest or weed control at 35 g/ha [11] | pest or weed control at 70 g/ha [11] | pest or weed control at 140 g/ha [11]
70%: pest or weed control at 35 g/ha [2] | pest or weed control at 35 g/ha [4] | pest or weed control at 70 g/ha [4] | pest or weed control at 140 g/ha [8]
75%: pest or weed control at 70 g/ha [2] | pest or weed control at 140 g/ha [2] | pest or weed control at 140 g/ha [4]
50%: pest or weed control at 17.5 g/ha [8]
